ChEMBL document CHEMBL5543125, “Discovery of 2,3-Dihydro[1,4]dioxino[2,3-g]benzofuran Derivatives as Protease Activated Receptor 4 (PAR4) Antagonists with Potent Antiplatelet Aggregation Activity and Low Bleeding Tendency” (J Med Chem, 2024)
Activity calls are given as the source filed them. The rule behind the calls is not given here.

Legend:
[1] = Metabolic stability in human liver microsomes assessed as half life at 1 uM preincubated for 1 hr followed by NADPH addition and measured upto 60 mins by LC-MS/MS analysis; assay type: ADME, Microsome; settings: time < 120 min
Platelet [2] = assay: Inhibition of platelet aggregation in human platelet rich plasma preincubated for 5 mins followed by aggregation inducer addition and measured after 5 mins by light transmission aggregometry; assay type: functional, cell-based
Platelet [3] = assay: Inhibition of platelet aggregation in human platelet rich plasma at 20 uM preincubated for 5 mins followed by aggregation inducer addition and measured after 5 mins by light transmission aggregometry relative to control; assay type: functional; settings: 10 min
[4] = biological target: T1, Proteinase-activated receptor 4 (Homo sapiens) (UniProt Q96RI0); assay: (§1) Antagonist activity at PAR4 in human plasma assessed as inhibition of PAR4-activated peptide AYPGPK-NH2 induced platelet aggregation by measuring residual aggregation rate at 20 nM to 1 uM preincubated for 5 mins followed by aggregation inducer addition and measured after 5 mins by light transmission aggregometry relative to control; assay type: functional, cell-free; settings: filed as antagonist, dose 20-1000 nM, time 10.0 min
T1 sequence (whole entry): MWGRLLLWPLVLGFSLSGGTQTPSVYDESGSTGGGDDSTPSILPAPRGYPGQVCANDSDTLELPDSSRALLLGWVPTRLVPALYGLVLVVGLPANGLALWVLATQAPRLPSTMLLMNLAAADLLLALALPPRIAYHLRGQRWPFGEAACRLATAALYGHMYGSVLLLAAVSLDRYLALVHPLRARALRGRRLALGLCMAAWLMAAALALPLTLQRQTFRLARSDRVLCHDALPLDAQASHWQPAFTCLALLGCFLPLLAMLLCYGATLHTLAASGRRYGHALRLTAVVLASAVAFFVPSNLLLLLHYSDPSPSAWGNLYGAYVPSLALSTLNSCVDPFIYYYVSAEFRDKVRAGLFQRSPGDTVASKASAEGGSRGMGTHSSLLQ

Platelet [5] = assay: as §1, with “Antiplatelet aggregation” for “Antagonist”, “activity” for “activity at PAR4”, “thrombin” for “PAR4-activated peptide AYPGPK-NH2”; assay type: functional; settings: dose 20-1000 nM, time 10 min, at 20 to 1000 nM
[6] = biological target: T2, Proteinase-activated receptor 1 (Homo sapiens) (UniProt P25116); assay: Antagonist activity at PAR1 in human plasma assessed as inhibition of PAR1-activated peptide SFLLRNPNDKY induced platelet aggregation at 20 nM to 1 uM preincubated for 5 mins followed by aggregation inducer addition and measured after 5 mins by light transmission aggregometry; assay type: functional, cell-free; settings: dose 20-1000 nM, time 10.0 min
T2 sequence (whole entry): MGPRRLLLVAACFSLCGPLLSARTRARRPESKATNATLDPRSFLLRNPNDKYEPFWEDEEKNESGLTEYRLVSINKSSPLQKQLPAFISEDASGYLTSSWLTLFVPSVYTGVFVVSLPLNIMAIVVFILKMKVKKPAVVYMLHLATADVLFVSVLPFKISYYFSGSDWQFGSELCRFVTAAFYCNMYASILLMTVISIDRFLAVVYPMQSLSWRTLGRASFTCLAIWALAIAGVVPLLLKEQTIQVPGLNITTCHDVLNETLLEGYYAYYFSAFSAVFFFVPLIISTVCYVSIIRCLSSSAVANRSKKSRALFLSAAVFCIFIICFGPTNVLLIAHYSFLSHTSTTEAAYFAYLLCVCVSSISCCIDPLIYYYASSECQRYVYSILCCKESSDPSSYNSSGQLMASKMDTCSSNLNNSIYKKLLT

Platelet [7] = assay: Antagonist activity at P2Y1/P2Y12 in human plasma assessed as inhibition of ADP-induced platelet aggregation at 20 nM to 1 uM preincubated for 5 mins followed by aggregation inducer addition and measured after 5 mins by light transmission aggregometry; assay type: cell-free; settings: dose 20-1000 nM, time 10.0 min
[8] = biological target: T3, Platelet glycoprotein VI (Homo sapiens) (UniProt Q9HCN6); assay: Antagonist activity at GPVI in human plasma assessed as inhibition of collagen-induced platelet aggregation at 20 nM to 1 uM preincubated for 5 mins followed by aggregation inducer addition and measured after 5 mins by light transmission aggregometry; assay type: cell-free; settings: dose 20-1000 nM, time 10.0 min
T3 sequence (whole entry): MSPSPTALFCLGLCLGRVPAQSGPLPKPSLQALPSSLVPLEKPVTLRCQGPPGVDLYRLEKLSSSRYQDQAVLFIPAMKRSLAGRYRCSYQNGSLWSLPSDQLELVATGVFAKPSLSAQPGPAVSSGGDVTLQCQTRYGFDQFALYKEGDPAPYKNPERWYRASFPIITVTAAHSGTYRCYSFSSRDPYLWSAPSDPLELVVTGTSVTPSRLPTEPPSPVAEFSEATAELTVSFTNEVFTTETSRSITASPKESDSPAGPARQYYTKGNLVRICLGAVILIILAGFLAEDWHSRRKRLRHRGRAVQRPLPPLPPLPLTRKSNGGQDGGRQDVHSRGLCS

[9] = biological target: T4, Thromboxane A2 receptor (Homo sapiens) (UniProt P21731); assay: Antagonist activity at thromboxane A2 receptor in human plasma assessed as inhibition of U46619-induced platelet aggregation at 20 nM to 1 uM preincubated for 5 mins followed by aggregation inducer addition and measured after 5 mins by light transmission aggregometry; assay type: functional, cell-free; settings: dose 20-1000 nM, time 10.0 min
T4 sequence (whole entry): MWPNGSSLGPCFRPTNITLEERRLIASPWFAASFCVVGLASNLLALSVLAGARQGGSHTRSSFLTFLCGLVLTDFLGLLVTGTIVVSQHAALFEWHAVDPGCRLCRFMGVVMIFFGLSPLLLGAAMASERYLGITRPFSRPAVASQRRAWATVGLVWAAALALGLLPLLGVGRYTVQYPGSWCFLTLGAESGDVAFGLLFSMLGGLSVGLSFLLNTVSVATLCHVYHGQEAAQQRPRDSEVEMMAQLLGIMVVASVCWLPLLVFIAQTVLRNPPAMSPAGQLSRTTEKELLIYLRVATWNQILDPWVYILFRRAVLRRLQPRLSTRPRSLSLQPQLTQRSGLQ

Platelet [10] = assay: Antagonist activity at GPIB/vWF in human plasma assessed as inhibition of ristocetin-induced platelet aggregation at 20 nM to 1 uM preincubated for 5 mins followed by aggregation inducer addition and measured after 5 mins by light transmission aggregometry; assay type: cell-free; settings: dose 20-1000 nM, time 10.0 min
[11] = biological target: T1, Proteinase-activated receptor 4 (Homo sapiens); assay: Antagonist activity at PAR4 in human filtered plasma assessed as inhibition of PAR4-activated peptide AYPGPK-NH2 induced platelet aggregation at 3 nM preincubated for 5 mins followed by aggregation inducer addition and measured after 5 mins by light transmission aggregometry; assay type: functional, cell-free; settings: filed as antagonist, time 10.0 min
[12] = biological target: T1, Proteinase-activated receptor 4 (Homo sapiens); assay: Antagonist activity at PAR4 in human filtered plasma assessed as inhibition of PAR4-activated peptide AYPGPK-NH2 induced platelet aggregation at 10 nM preincubated for 5 mins followed by aggregation inducer addition and measured after 5 mins by light transmission aggregometry relative to control; assay type: functional, cell-free; settings: filed as antagonist, time 10.0 min
[13] = biological target: T2, Proteinase-activated receptor 1 (Homo sapiens); assay: Antagonist activity at PAR1 in human plasma assessed as inhibition of PAR1-activated peptide SFLLRNPNDKY induced platelet aggregation upto 9 uM preincubated for 5 mins followed by aggregation inducer addition and measured after 5 mins by light transmission aggregometry; assay type: functional, cell-free; settings: time 10.0 min
[14] = Oral bioavailability in Sprague-Dawley rat at 50 mg/kg; assay type: ADME, organism-based; settings: in vivo

half-life at 1 µM [1]: 12.2 min
IC50 (Platelet [2]): 3.2 nM
Activity [4]: < 30%
Activity [6]: inactive
Activity (Platelet [7]): inactive
Activity [8]: inactive
Activity [9]: inactive
Activity (Platelet [10]): inactive
Activity [11]: Active
inhibition [12]: 100%
Activity [13]: inactive
bioavailability [14]: 0.94%
SMILES: COc1nn2cc(-c3cc4ccc5c(c4o3)OCCO5)nc2s1
inhibition at 20 µM (Platelet [3]): 90.5%
Activity (Platelet [5]): <30%
